Measurements taken from ChEMBL document CHEMBL5236565, “Design, synthesis, and biological evaluation of novel 2'-methyl-2'-fluoro-6-methyl-7-alkynyl-7-deazapurine nucleoside analogs as anti-Zika virus agents” (Eur J Med Chem, 2022).

What was measured:
Zika virus [1] = experiment: Antiviral activity against ZIKV infected in human A549 cells at 50 uM by microtiter assay relative to control; format: functional
A549 = experiment: Cytotoxicity against human A549 cells assessed as cell growth inhibition measured after 24 hrs by MTT assay; format: functional
Zika virus [2] = experiment: Antiviral activity against ZIKV ZG-01 infected in human A549 cells assessed as reduction in viral induced cytopathic effect by measuring reduction in PFU measured after 4 days by neutral red staining based plaque assay; format: functional, organism-based; details: ZG-01, A549, 96 h; for EC90: time 4 day
NS5 = NS5 (Zika virus, UniProt A0A143MHK7); experiment: Binding affinity to N-terminal His-tagged recombinant ZIKV ZG-01 RdRp (272 to 903 residues) expressed in Escherichia coli rosetta by surface plasmon resonance assay
Sequence of NS5 (A0A143MHK7 whole entry, the tested form may be a part): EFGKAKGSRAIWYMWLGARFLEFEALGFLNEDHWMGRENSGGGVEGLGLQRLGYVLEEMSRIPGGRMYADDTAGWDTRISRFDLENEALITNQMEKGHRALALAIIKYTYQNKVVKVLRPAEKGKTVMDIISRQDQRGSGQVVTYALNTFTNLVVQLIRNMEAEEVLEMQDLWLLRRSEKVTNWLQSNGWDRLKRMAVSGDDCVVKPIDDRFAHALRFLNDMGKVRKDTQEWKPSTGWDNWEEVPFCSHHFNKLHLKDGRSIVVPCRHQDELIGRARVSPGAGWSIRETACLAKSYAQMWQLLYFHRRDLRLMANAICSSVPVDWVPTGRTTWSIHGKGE

Compound	Activity (Zika virus [1])	CC50 (A549)	EC50 (Zika virus [2])	EC90 (Zika virus [2])	Kd (NS5)
Cc1ccnc(C#Cc2cn([C@@H]3O[C@H](CO)[C@@H](O)[C@@]3(C)F)c3ncnc(C)c23)c1	<10%	–	–	–	–
COc1ccc(C#Cc2cn([C@@H]3O[C@H](CO)[C@@H](O)[C@@]3(C)F)c3ncnc(C)c23)cc1	>90%	> 50 µM	11.8 µM	40.7 µM	–
Cc1ncnc2c1c(C#Cc1cccc(Br)c1)cn2[C@@H]1O[C@H](CO)[C@@H](O)[C@@]1(C)F	>90%	> 50 µM	4.5 µM	15.4 µM	–
Cc1ccc(C#Cc2cn([C@@H]3O[C@H](CO)[C@@H](O)[C@@]3(C)F)c3ncnc(C)c23)cc1	>90%	> 50 µM	11.8 µM	24.2 µM	–
Cc1cccc(C#Cc2cn([C@@H]3O[C@H](CO)[C@@H](O)[C@@]3(C)F)c3ncnc(C)c23)n1	<10%	–	–	–	–
Cc1ncnc2c1c(C#Cc1ccccc1)cn2[C@@H]1O[C@H](CO)[C@@H](O)[C@@]1(C)F	–	> 50 µM	13.8 µM	33.6 µM	–
Cc1ncnc2c1c(C#Cc1ccc(F)cc1)cn2[C@@H]1O[C@H](CO)[C@@H](O)[C@@]1(C)F	37.5%	–	–	–	–
Cc1ncnc2c1c(-n1cc(-c3ccccc3)nn1)cn2[C@@H]1O[C@H](CO)[C@@H](O)[C@@]1(C)F	<10%	–	–	–	–
Cc1ccsc1C#Cc1cn([C@@H]2O[C@H](CO)[C@@H](O)[C@@]2(C)F)c2ncnc(C)c12	40.2%	–	–	–	–
COc1ccccc1C#Cc1cn([C@@H]2O[C@H](CO)[C@@H](O)[C@@]2(C)F)c2ncnc(C)c12	>90%	> 50 µM	40.3 µM	> 50 µM	–
Cc1ncnc2c1c(C#CC(C)(C)C)cn2[C@@H]1O[C@H](CO)[C@@H](O)[C@@]1(C)F	22.4%	–	–	–	–
Cc1ncnc2c1c(C1CC1c1ccccc1)cn2[C@@H]1O[C@H](CO)[C@@H](O)[C@@]1(C)F (stereo partly specified)	<10%	–	–	–	–
Cc1ncnc2c1c(C#Cc1cccnc1)cn2[C@@H]1O[C@H](CO)[C@@H](O)[C@@]1(C)F	<10%	–	–	–	–
Cc1ccc(C#Cc2cn([C@@H]3O[C@H](CO)[C@@H](O)[C@@]3(C)F)c3ncnc(C)c23)s1	43.9%	–	–	–	–
Cc1ncnc2c1c(C#Cc1ccccc1F)cn2[C@@H]1O[C@H](CO)[C@@H](O)[C@@]1(C)F	>90%	> 50 µM	4.9 µM	19.7 µM	–
Cc1ncnc2c1c(-c1ccccc1)cn2[C@@H]1O[C@H](CO)[C@@H](O)[C@@]1(C)F	<10%	–	–	–	–
Cc1ncnc2c1c(C#Cc1cccc(F)c1)cn2[C@@H]1O[C@H](CO)[C@@H](O)[C@@]1(C)F	<10%	–	–	–	–
Cc1ncnc2c1c(C#Cc1ccccc1Br)cn2[C@@H]1O[C@H](CO)[C@@H](O)[C@@]1(C)F	>90%	> 50 µM	9.6 µM	19.7 µM	–
C#C[C@@]1(O)[C@H](O)[C@@H](CO)O[C@H]1n1ccc2c(N)ncnc21	–	> 50 µM	14 µM	30.9 µM	3.43 µM
Cc1cccc(C#Cc2cn([C@@H]3O[C@H](CO)[C@@H](O)[C@@]3(C)F)c3ncnc(C)c23)c1	>90%	> 50 µM	7.1 µM	19.1 µM	–
